This passage reports IC50 results from patent US7598258B2, “Quinoline derivatives and quinazoline derivatives inhibiting autophosphorylation of macrophage colony stimulating factor receptor” (Kirin Beer Kabushiki Kaisha, priority 2002, dated 2009).

For the experiment, the target named is T1, mouse c-fms (Mus musculus, UniProt P09581).
T1 construct: Macrophage-like cell line BAC-1.2F5 which expresses c-fms as a M-CSF receptor on cell membranes; endogenous in cells; host or cells: BAC-1.2F5 mouse macrophage-like cell line
T1 sequence (P09581 20-977): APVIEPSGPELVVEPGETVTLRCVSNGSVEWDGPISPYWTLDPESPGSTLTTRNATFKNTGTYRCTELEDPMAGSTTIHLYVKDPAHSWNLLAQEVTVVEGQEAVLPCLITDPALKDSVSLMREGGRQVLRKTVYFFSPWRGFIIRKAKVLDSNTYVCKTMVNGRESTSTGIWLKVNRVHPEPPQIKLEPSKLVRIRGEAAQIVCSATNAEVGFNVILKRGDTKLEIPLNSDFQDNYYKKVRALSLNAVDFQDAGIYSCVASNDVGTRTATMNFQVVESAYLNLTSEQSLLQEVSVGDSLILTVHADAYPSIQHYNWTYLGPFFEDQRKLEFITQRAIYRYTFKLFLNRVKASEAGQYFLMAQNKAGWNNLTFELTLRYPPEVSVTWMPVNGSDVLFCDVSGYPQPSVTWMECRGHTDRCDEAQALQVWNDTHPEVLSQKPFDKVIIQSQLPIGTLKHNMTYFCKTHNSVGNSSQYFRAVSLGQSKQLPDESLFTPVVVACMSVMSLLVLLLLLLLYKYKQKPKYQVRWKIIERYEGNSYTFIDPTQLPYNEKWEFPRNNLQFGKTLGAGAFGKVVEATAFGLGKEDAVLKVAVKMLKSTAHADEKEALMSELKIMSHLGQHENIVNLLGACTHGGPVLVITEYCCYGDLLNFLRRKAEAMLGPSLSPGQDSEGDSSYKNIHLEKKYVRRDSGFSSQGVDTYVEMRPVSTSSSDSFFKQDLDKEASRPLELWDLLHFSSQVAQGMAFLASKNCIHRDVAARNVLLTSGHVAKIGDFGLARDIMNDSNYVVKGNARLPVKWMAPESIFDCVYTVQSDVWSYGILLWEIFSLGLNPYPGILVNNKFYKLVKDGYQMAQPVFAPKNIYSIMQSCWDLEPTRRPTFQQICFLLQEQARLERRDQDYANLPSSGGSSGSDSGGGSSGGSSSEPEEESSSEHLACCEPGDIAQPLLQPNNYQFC
Put plainly: Inhibition of c-fms autophosphorylation in macrophage-like cell line BAC-1.2F5 by M-CSF stimulation (ELISA). It counts as cell-based. Conditions: BAC-1.2F5 cells, human recombinant M-CSF 50 ng/ml, read-out: c-fms autophosphorylation 50% inhibitory concentration (IC50). How it is done: Macrophage-like cell line BAC-1.2F5 which expresses c-fms as a M-CSF receptor on cell membranes (CLAUDIA M. et al., J. Cell. Physiol., 130, 420-427 (1987), “Isolation and Characterization of a Cloned Growth Factor Dependent Macrophage Cell Line, BAC1.2F5”) was cultured at 37° C. in a DMEM medium containing L-cell supernatant and 10% fetal calf serum (GIBCO BRL) in a 5% CO2 incubator until about 50 to 70% confluent. The harvested cells were inoculated into wells, each containing the same medium, in a collagen type I coat 96-well flat-bottom plate in an amount of 5.0×10^4 per well, and cultured at 37° C. for 12 hr. Thereafter, the medium was replaced with a DMEM medium containing a 0.1% fetal calf serum and cultured for 12 hr. Thereafter, a test compound dissolved in dimethyl sulfoxide was added to each well, and cells were incubated at 37° C. for one hr. Human recombinant M-CSF was added to a final concentration of 50 ng/ml, and cells were stimulated at 37° C. for 6 min. After the medium was removed, 50 μl of a solubilization buffer (20 mM HEPES (pH 7.4), 150 mM NaCl, 0.2% Triton X-100, 10% glycerol, 5 mM sodium orthovanadylate, 5 mM disodium ethylenediaminetetraacetate, and 2 mM Na4P2O7) was added thereto. The mixture was shaken at 4° C. for 2 hr to prepare a cell extract as an assay sample which was then used for an ELISA assay.
The plate for the ELISA assay was prepared as follows. Phosphate buffered saline (50 μl, pH 7.4) containing 5 μg/ml of anti-phospho-tyrosine antibody (PY20; Transduction Laboratories) was added to a microplate for ELISA (Maxisorp; purchased from NUNC), followed by standing at 4° C. overnight to be immobilized on the wells. Thereafter, each well was washed twice with 200 μl of a Ca- and Mg-free phosphate buffer containing 0.1% Tween-20 (hereinafter referred to as “PBS-T”), and 200 μl of a blocking solution (Dainippon Pharmaceutical Co. Ltd.: BlockAce) was added to each well, and the wells were then allowed to stand at room temperature for 2 hr for blocking.
Separately, phosphate buffered saline (50 μl, pH 7.4) containing 5 μg/ml of anti-phospho-tyrosine antibody (PY20; Transduction Laboratories) was added to a microplate for ELISA (Maxisorp; purchased from NUNC), followed by standing at 4° C. overnight to form a solid phase on the wells. After washing of the plate, 300 μl of a blocking solution was added, followed by standing at room temperature for 2 hr to perform blocking. After washing, the whole quantity of the cell extract was transferred to the wells, and the plate was then allowed to stand at 4° C. overnight. After washing, anti-c-fms antiserum (Upstate Biotechnology, Inc.) was allowed to react at room temperature for one hr, and, after washing, a peroxidase-labeled anti-rabbit Ig antibody (Amersham) was allowed to react at room temperature for one hr. After washing, a chromophoric substrate for peroxidase (Sumitomo Bakelite Co., Ltd.) was added thereto to initiate a reaction. After a suitable level of color development, a reaction termination solution was added to stop the reaction, and the absorbance at 450 nm was measured with a microplate reader. The c-fms phosphorylation activity for each well was determined by presuming the absorbance without the addition of the test compound and with the addition of M-CSF to be 100% c-fms phosphorylation activity and the absorbance without the addition of the test compound and M-CSF to be 0% c-fms phosphorylation activity. The concentration of the test compound was varied on several levels, the c-fms phosphorylation inhibitory rate was determined for each case, and the concentration of the test compound necessary for inhibiting 50% of c-fms phosphorylation (IC50) was calculated.
With `COc1cc2nccc(Oc3cc(C)c(NC(=O)N[C@H](C)c4nccs4)cc3C)c2cc1OC` [Example 87, N-{4-[(6,7-Dimethoxy-4-quinolyl)oxy]-2,5-dimethylphenyl}-N′-[(1R)-1-(1,3-thiazol-2-yl)ethyl]urea], the IC50 stood at 26.5 nM.
The same measure for `COc1cc2nccc(Oc3ccc(NC(=O)N[C@H](C)c4cccc(Br)c4)c(C)c3)c2cc1OC` [Example 58, N-[(1R)-1-(3-Bromophenyl)ethyl]-N′-{4-[(6,7-dimethoxy-4-quinolyl)oxy]-2-methylphenyl}urea]: 80.9 nM; for `COc1cc2nccc(Oc3ccc(NC(=O)N[C@@H](C)c4nccs4)cc3OC)c2cc1OC` [Example 81, N-{4-[(6,7-Dimethoxy-4-quinolyl)oxy]-3-methoxyphenyl}-N′-[(1S)-1-(1,3-thiazol-2-yl)ethyl]urea]: 6.2 nM.
Regarding `COc1cc2nccc(Oc3ccc(NC(=O)NC(C)c4ccc(F)cc4)c(Cl)c3)c2cc1OC` (stereo not drawn) [Example 4, N-{2-Chloro-4-[(6,7-dimethoxy-4-quinolyl)oxy]phenyl}-N′-[1-(4-fluorophenyl)ethyl]urea], the IC50 is 4 nM.
Regarding `COc1cc2nccc(Oc3ccc(NC(=O)N[C@@H](C)c4ccc(F)cc4)c(C(F)(F)F)c3)c2cc1OC` [Example 20, N-[4-[(6,7-Dimethoxy-4-quinolyl)oxy]-2-(trifluoromethyl)phenyl]-N′-[(1S)-1-(4-fluorophenyl)ethyl]urea], the IC50 is 6.2 nM.
The same measure for `COc1cc2nccc(Oc3ccc(NC(=O)N[C@H](C)c4nccs4)c(C(F)(F)F)c3)c2cc1OC` [Example 85, N-[4-[(6,7-Dimethoxy-4-quinolyl)oxy]-2-(trifluoromethyl)phenyl]-N′-[(1R)-1-(1,3-thiazol-2-yl)ethyl]urea]: 17.4 nM; for `COc1cc2nccc(Oc3ccc(NC(=O)N[C@H](C)c4nccs4)c(F)c3)c2cc1OC` [Example 72, N-{4-[(6,7-Dimethoxy-4-quinolyl)oxy]-2-fluorophenyl}-N′-[(1R)-1-(1,3-thiazol-2-yl)ethyl]urea]: 4.9 nM; for `COc1cc2nccc(Oc3ccc(NC(=O)N[C@@H](C)c4nccs4)cc3)c2cc1OC` [Example 78, N-{4-[(6,7-Dimethoxy-4-quinolyl)oxy]phenyl}-N′-[(S)-1-(1,3-thiazol-2-yl)ethyl]urea]: 2.9 nM.
Next, `COc1cc2nccc(Oc3ccc(NC(=O)N[C@@H](C)c4ccc(F)cc4)cc3OC)c2cc1OC` [Example 23, N-{4-[(6,7-Dimethoxy-4-quinolyl)oxy]-3-methoxyphenyl}-N′-[(1S)-1-(4-fluorophenyl)ethyl]urea]: 10.2 nM; `COc1cc2nccc(Oc3ccc(NC(=O)N[C@H](C)c4cccc(Br)c4)cc3Cl)c2cc1OC` [Example 57, N-[(1R)-1-(3-Bromophenyl)ethyl]-N′-{3-chloro-4-[(6,7-dimethoxy-4-quinolyl)oxy]phenyl}urea]: 128 nM.
As for `COc1cc2nccc(Oc3ccc(NC(=O)NC(C)c4ncc(C)s4)cc3)c2cc1OC` (stereo not drawn) [Example 100, N-{4-[(6,7-Dimethoxy-4-quinolyl)oxy]phenyl}-N′-[1-(5-methyl-1,3-thiazol-2-yl)ethyl]urea], the IC50 was 15.7 nM.
For the compound `COc1cc2nccc(Oc3ccc(NC(=O)NC(C)c4nccs4)c(C(F)(F)F)c3)c2cc1OC` (stereo not drawn) [Example 83, N-[4-[(6,7-Dimethoxy-4-quinolyl)oxy]-2-(trifluoromethyl)phenyl]-N′-[1-(1,3-thiazol-2-yl)ethyl]urea], the IC50 came to 10.2 nM.
For `COc1cc2nccc(Oc3ccc(NC(=O)N[C@@H](C)c4ccc(F)cc4)c(C)c3C)c2cc1OC` [Example 26, N-{4-[(6,7-Dimethoxy-4-quinolyl)oxy]-2,3-dimethylphenyl}-N′-[(1S)-1-(4-fluorophenyl)ethyl]urea], the IC50 came to 16.3 nM.
In the case of `COc1cc2nccc(Oc3ccc(NC(=O)NC(C)c4ccc(F)cc4)c(C)c3)c2cc1OC` (stereo not drawn) [Example 13, N-{4-[(6,7-Dimethoxy-4-quinolyl)oxy]-2-methylphenyl}-N′-[1-(4-fluorophenyl)ethyl]urea], the IC50 is 6.1 nM.
Take `COc1ccc([C@H](C)NC(=O)Nc2ccc(Oc3ccnc4cc(OC)c(OC)cc34)cc2)cc1` [Example 53, N-{4-[(6,7-Dimethoxy-4-quinolyl)oxy]phenyl}-N′-[(1S)-1-(4-methoxyphenyl)ethyl]urea]: the IC50 stood at 2.7 nM.
Regarding `COc1cc2nccc(Oc3ccc(NC(=O)NC(C)c4ccc(F)cc4)cc3)c2cc1OC` (stereo not drawn) [Example 1, N-{4-[(6,7-Dimethoxy-4-quinolyl)oxy]phenyl}-N′-[1-(4-fluorophenyl)ethyl]urea], the IC50 is 2.4 nM.
In the case of `COc1cc2nccc(Oc3ccc(NC(=O)NC(C)c4nccs4)cc3F)c2cc1OC` (stereo not drawn) [Example 73, N-{4-[(6,7-Dimethoxy-4-quinolyl)oxy]-3-fluorophenyl}-N′-[1-(1,3-thiazol-2-yl)ethyl]urea], the IC50 amounted to 3 nM.
In the case of `COc1cc(Oc2ccnc3cc(OC)c(OC)cc23)ccc1NC(=O)N[C@H](C)c1cccc(Br)c1` [Example 59, N-[(1R)-1-(3-Bromophenyl)ethyl]-N′-{4-[(6,7-dimethoxy-4-quinolyl)oxy]-2-methoxyphenyl}urea], the IC50 was 20.3 nM.
With `COc1cc2nccc(Oc3ccc(NC(=O)N[C@@H](C)c4ccc(F)cc4)c(C)c3)c2cc1OC` [Example 14, N-{4-[(6,7-Dimethoxy-4-quinolyl)oxy]-2-methylphenyl}-N′-[(1S)-1-(4-fluorophenyl)ethyl]urea], the IC50 came out at 13 nM.
Regarding `COc1cc2nccc(Oc3ccc(NC(=O)NC(C)c4nccs4)cc3)c2cc1OC` (stereo not drawn) [Example 77, N-{4-[(6,7-Dimethoxy-4-quinolyl)oxy]phenyl}-N′-[1-(1,3-thiazol-2-yl)ethyl]urea], the IC50 is 4.7 nM.
Take `COc1cc2nccc(Oc3cc(C)c(NC(=O)N[C@H](C)c4ccc(F)cc4)cc3C)c2cc1OC` [Example 9, N-{4-[(6,7-Dimethoxy-4-quinolyl)oxy]-2,5-dimethylphenyl}-N′-[(1R)-1-(4-fluorophenyl)ethyl]urea]: the IC50 was determined as 17.4 nM.
